Source: ChEMBL document CHEMBL1147584, “Antimalarial activity of phenazines from lapachol, beta-lapachone and its derivatives against Plasmodium falciparum in vitro and Plasmodium berghei in vivo” (Bioorg Med Chem Lett, 2004)

What was measured:
Plasmodium falciparum [1] = experiment: In vitro antimalarial activity for Plasmodium falciparum HB3; format: functional, organism-based
Plasmodium falciparum [2] = experiment: In vitro antimalarial activity for Plasmodium falciparum D6; format: functional, organism-based
Plasmodium falciparum [3] = experiment: In vitro antimalarial activity for Plasmodium falciparum W2; format: functional, organism-based
Plasmodium falciparum [4] = experiment: In vitro antimalarial activity for Plasmodium falciparum BHz26/86; format: functional, organism-based
Plasmodium berghei [5] = experiment: Inhibition of Plasmodium berghei infection in mice (Mus musculus) at 200 mg/kg subcutaneous dose (expt 2); format: functional; conditions: sc
Plasmodium berghei [6] = experiment: Inhibition of Plasmodium berghei infection in mice (Mus musculus) at 200 mg/kg peroral dose (expt 2); format: functional; conditions: route oral
Plasmodium berghei [7] = experiment: Inhibition of Plasmodium berghei infection in mice (Mus musculus) at 100 mg/kg subcutaneous dose (expt 3); format: functional; conditions: sc
Plasmodium berghei [8] = experiment: Inhibition of Plasmodium berghei infection in mice (Mus musculus) at 200 mg/kg subcutaneous dose (experiment 1); format: functional; conditions: sc
Plasmodium berghei [9] = experiment: Inhibition of Plasmodium berghei infection in mice (Mus musculus) at 200 mg/kg subcutaneous dose (expt 3); format: functional; conditions: sc
Plasmodium berghei [10] = experiment: Inhibition of Plasmodium berghei infection in mice (Mus musculus) at 100 mg/kg subcutaneous dose (expt 1); format: functional; conditions: sc
Plasmodium berghei [11] = experiment: Inhibition of Plasmodium berghei infection in mice (Mus musculus) at 200 mg/kg peroral dose (expt 1); format: functional; conditions: route oral
Plasmodium berghei [12] = experiment: Inhibition of Plasmodium berghei infection in mice (Mus musculus) at 100 mg/kg subcutaneous dose (experiment 2); format: functional; conditions: sc
Plasmodium berghei [13] = experiment: Inhibition of Plasmodium berghei in mice (Mus musculus) after 15 mg/kg subcutaneous dose (experiment 1); format: functional; conditions: sc
Plasmodium berghei [14] = experiment: Inhibition of Plasmodium berghei infection in mice (Mus musculus) at 15 mg/kg subcutaneous dose (experiment 3); format: functional; conditions: sc
Plasmodium berghei [15] = experiment: Inhibition of Plasmodium berghei infection in mice (Mus musculus) at 15 mg/kg subcutaneous dose (experiment 2); format: functional; conditions: sc
Plasmodium berghei [16] = experiment: Inhibition of Plasmodium berghei infection in mice (Mus musculus) at 25 mg/kg peroral dose (expt 2); format: functional; conditions: route oral
Plasmodium berghei [17] = experiment: Inhibition of Plasmodium berghei infection in mice (Mus musculus) at 25 mg/kg peroral dose (experiment 1); format: functional; conditions: route oral

Row | SMILES | IC50 (Plasmodium falciparum [1]) | IC50 (Plasmodium falciparum [2]) | IC50 (Plasmodium falciparum [3]) | IC50 (Plasmodium falciparum [4]) | inhibition in vivo at 200 mg/kg (Plasmodium berghei [6]) | inhibition in vivo at 200 mg/kg (Plasmodium berghei [11]) | further results
1 | CC1(C)CCc2c(c3ccccc3c3nc4ccccc4nc23)O1 | > 20 µM | > 20 µM | > 20 µM | > 20 µM |  |  | 
2 | CC1(C)Oc2c(c3nc4ccccc4nc3c3ccccc23)CC1Br (configuration not stated) | 8.75 µM | 4.07 µM | 3.04 µM | 1.9 µM | 10% | 11% | inhibition in vivo at 200 mg/kg (Plasmodium berghei [5]): 0%; inhibition in vivo at 100 mg/kg (Plasmodium berghei [7]): 0%; inhibition in vivo at 200 mg/kg (Plasmodium berghei [8]): 0%; inhibition in vivo at 200 mg/kg (Plasmodium berghei [9]): 0%; inhibition in vivo at 100 mg/kg (Plasmodium berghei [10]): 0%; inhibition in vivo at 100 mg/kg (Plasmodium berghei [12]): 0%
3 | C=CCC1Cc2c(c3ccccc3c3nc4ccccc4nc23)OC1(C)C (configuration not stated) | > 20 µM | > 20 µM | > 20 µM | > 20 µM |  |  | 
4 | CC1(C)Oc2c(c3nc4ccccc4nc3c3ccccc23)CC1I (configuration not stated) | 6.65 µM | 4.26 µM | 3.22 µM | 2.3 µM |  |  | 
5 | CC1(C)Oc2c(c3nc4ccccc4nc3c3ccccc23)CC1S(=O)(=O)O (configuration not stated) | 6.14 µM | 2.43 µM | 1.67 µM | 1.75 µM | 36% | 33% | inhibition in vivo at 200 mg/kg (Plasmodium berghei [5]): 40%; inhibition in vivo at 200 mg/kg (Plasmodium berghei [8]): 50%; inhibition in vivo at 200 mg/kg (Plasmodium berghei [9]): 98%; inhibition in vivo at 100 mg/kg (Plasmodium berghei [10]): 34%; inhibition in vivo at 100 mg/kg (Plasmodium berghei [12]): 31%
6 | CC(C)=CCc1c(O)c2ccccc2c2nc3ccccc3nc12 | 9.44 µM | 3.72 µM | 3.54 µM | 3.14 µM |  |  | 
7 | c1ccc2c(c1)ccc1nc3ccccc3nc12 [BENZO[A]PHENAZINE] | > 20 µM | > 20 µM | > 20 µM | > 20 µM |  |  | 
8 | CCN(CC)CCCC(C)Nc1ccnc2cc(Cl)ccc12 (configuration not stated) [CHLOROQUINE] |  |  |  |  |  |  | inhibition in vivo at 15 mg/kg (Plasmodium berghei [13]): 99%; inhibition in vivo at 15 mg/kg (Plasmodium berghei [14]): 99%; inhibition in vivo at 15 mg/kg (Plasmodium berghei [15]): 99%; inhibition in vivo at 25 mg/kg (Plasmodium berghei [16]): 98%; inhibition in vivo at 25 mg/kg (Plasmodium berghei [17]): 99%
9 | CC(C)=CCC1=C(O)C(=O)c2ccccc2C1=O [LAPACHOL] |  |  |  |  | 0% | 0% | 
10 | CC1(C)CCC2=C(O1)c1ccccc1C(=O)C2=O [LAPACHONE] |  |  |  |  | 34% | 28% | 
